The source of these data is article PMC3688767, “Lipoprotein FtsB in Streptococcus pyogenes Binds Ferrichrome in Two Steps with Residues Tyr137 and Trp204 as Critical Ligands” (PLoS ONE, 2013).

“And” between values parts separate entries of the source, which are not always exact repeats. Equal values may be shown once. Square brackets hold non-standard residues; d marks the D form. Peptide text beside a SMILES is read from it. Orn(N5-OH,N5-Ac) = CC(=O)N(O)CCC[C@H](N)C(=O)O

For one assay, the target named is T1, FtsB mutant W204A (Streptococcus pyogenes, UniProt Q9A198, W204A).
T1 sequence (Q9A198 21-310 W204A): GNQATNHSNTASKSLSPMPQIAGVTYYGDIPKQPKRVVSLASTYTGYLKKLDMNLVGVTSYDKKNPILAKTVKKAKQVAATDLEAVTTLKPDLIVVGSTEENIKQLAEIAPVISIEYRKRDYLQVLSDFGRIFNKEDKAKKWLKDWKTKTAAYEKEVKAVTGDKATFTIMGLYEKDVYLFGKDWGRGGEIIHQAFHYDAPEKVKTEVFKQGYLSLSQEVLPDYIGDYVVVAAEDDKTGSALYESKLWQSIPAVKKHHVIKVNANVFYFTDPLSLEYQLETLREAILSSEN
In words: Fluorescence quenching titration of ferrichrome binding, Hill plot. As for the experimental part: (§1) E120A, Y137A, W204A and Y287A mutants were constructed by QuikChange mutagenesis kit (Stratagene) with the wild-type ftsb plasmid as a template, using primers summarized in Table 1. To further study the collective contribution of Glu120, Tyr137, Trp204 and Tyr287 to the Fch binding of FtsB, a tetra-point mutation E120A/Y137A/W204A/Y287A was produced by mutating these four amino acids to alanine simultaneously. The PCR reactions were performed as follows: denaturation at 95°C for 30 s, followed by 16 cycles with denaturation at 95°C for 30 s, annealing at 55°C for 1 min, and extension at 68°C for 6 min [14]. The mutant plasmids were transformed into E. coli XL1-blue for sequencing (Invitrogen). The mutant plasmid with correct sequence was transformed into E. coli BL21 (DE3) star competent cells for subsequent expression. Expression and purification of the FtsB mutants were carried out by following the same protocol as for the wild-type protein.
(§2) The interaction between FtsB and Fch was investigated in a fluorescence spectroﬂuorimeter (Hitachi F7000), in which the excitation wavelength was 280 nm (slit width of 2.5 nm) and the emission wavelength was between 290 and 500 nm (slit width of 10 nm). Aliquots of Fch (1 mM stock solution) were gradually added to 1 mL FtsB solution (1.5 µM, in 20 mM Tris–HCl, pH 7.2). Fluorescence spectra were collected after each titration until the spectra were stable. The data were analyzed with Hill plot in Origin 7.5 to acquire the binding capability and dissociation constant (K d). pH dependent Fch binding with FtsB was also examined in the same buffer with pH 3.2–9.2.

The target of the next assay is T2, FtsB mutant E120A (Streptococcus pyogenes, UniProt Q9A198, E120A).
T2 sequence (Q9A198 21-310 E120A): T1 sequence (Q9A198 21-310 W204A)
Described as above. The settings on record: 20 mM Tris-HCl, pH 7.2, read-out: Dissociation constant K d. As to the method: as §1, §2

The target of the next assay is T3, FtsB mutant Y287A (Streptococcus pyogenes, UniProt Q9A198, Y287A).
T3 sequence (Q9A198 21-310 Y287A): T1 sequence (Q9A198 21-310 W204A)
The assay is described as above. To be noted: 20 mM Tris-HCl, pH 7.2, read-out: Dissociation constant K d. As to the method:
as §1, §2

Assay [1] addresses T4, FtsB Tetra mutant E120A/Y137A/W204A/Y287A (Streptococcus pyogenes, UniProt Q9A198, E120A/W204A/Y137A/Y287A).
T4 sequence (Q9A198 21-310 E120A/Y137A/W204A/Y287A): T1 sequence (Q9A198 21-310 W204A)
The assay is described as above. The settings on record: 20 mM Tris-HCl, pH 7.2, may be no-specific interaction, read-out: Dissociation constant K d. As to the method: as §1, §2

Assay [2] deals with T5, FtsB mutant Y137A (Streptococcus pyogenes, UniProt Q9A198, Y137A).
T5 sequence (Q9A198 21-310 Y137A): T1 sequence (Q9A198 21-310 W204A)
The assay is described as above. As to the method: as §1, §2

Assay [3] addresses T6, WT FtsB (Streptococcus pyogenes, UniProt Q9A198). Described as above. As for the experimental part:
as §2

Assay [4] concerns the target T6, WT FtsB. In words: Stopped-flow fluorescence binding kinetics. The settings on record: WT FtsB 10 µM mixed with Fch 1∶1, 25°C, pH 7.2, second-order exponential fit; listed as Fch. As to the method:
(§3) Binding kinetics experiments were carried out using a stopped-ﬂow ﬂuorescence spectrometer (Applied Photophysics, SX200) at 25°C. The excitation wavelength was 280 nm and the ﬂuorescence emission was measured using a high-pass filter with a 320 nm cutoff. Binding reaction was initiated by mixing 10 µM FtsB in 20 mM Tris-HCl (pH 7.2) with Fch in a 1∶1 ratio. Kinetics experiments were performed 5 times, and data were analyzed with a second-order or first-order exponential function offered by Origin 7.5 software.

Assay [5] addresses T5, FtsB mutant Y137A. In words: Stopped-flow fluorescence binding kinetics. The settings on record: Y137A 10 µM mixed with Fch 1∶1, 25°C, pH 7.2, first-order exponential fit; listed as Fch. As for the experimental part:
as §3

Regarding `CC(=O)N([O-])CCC[C@@H]1NC(=O)CNC(=O)CNC(=O)CNC(=O)[C@H](CCCN([O-])C(C)=O)NC(=O)[C@H](CCCN([O-])C(C)=O)NC1=O.[Fe+3]` [ferrichrome, Ferrichrome] (cyclo(GGG[Orn(N5-OH,N5-Ac)][Orn(N5-OH,N5-Ac)][Orn(N5-OH,N5-Ac)])), the “folds higher K d in comparison with WT” value at FtsB mutant W204A (W204A mutant vs WT FtsB) and at FtsB mutant Y137A [2] (Y137A mutant vs WT FtsB) was 10–20 folds throughout. For the same compound, the Kd is 7.05 ± 0.08 µM on FtsB mutant W204A (W204A mutant, 20 mM Tris-HCl, pH 7.2, read-out: Dissociation constant K d); 0.52 ± 0.03 µM at FtsB mutant E120A; 0.52 ± 0.02 µM on FtsB mutant Y287A; 43.9 ± 2.5 µM in assay [1]; 3.7 ± 0.1 µM on FtsB mutant Y137A [2] (Y137A mutant, 20 mM Tris-HCl, pH 7.2, read-out: Dissociation constant K d); 0.4 ± 0.02 µM at WT FtsB [3] (WT FtsB 1.5 µM, 20 mM Tris-HCl, pH 7.2, read-out: Dissociation constant K d). The “pH of maximal binding” value at WT FtsB [3] (pH dependence examined at pH 3.2–9.2) turned out to be 7.2. The “fast rate constant k1” value on WT FtsB [4] is 180.2 ± 5.4 s⁻¹ and 180 s⁻¹. Moreover, the “slow rate constant k2” value at WT FtsB [4] is 18.7 ± 1.3 s⁻¹. At FtsB mutant Y137A [5], the rate constant k was 191.6 ± 7.6 s⁻¹ and 191 s⁻¹.
